Test results taken from PubChem BioAssay AID330 (DTP/NCI, 2004).
Where “and” joins values, the source holds several entries; their conditions need not be identical. Equal values may be shown once. Inconclusive results and toxic doses are left out.

Tested on: P388 leukemia ip, CD2F1 mice, survival T/C
Assay: NCI In Vivo Anticancer Drug Screen. Data for tumor model P388 Leukemia (intraperitoneal) in CD2F1 (CDF1) mice
Conditions: endpoint: median survival time, higher = longer survival
Outline: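 Mice carrying the transplanted tumor received test compound or vehicle. Survival was recorded in each group, and the value is the treated-group measurement divided by that of the vehicle-treated control group.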

[1] = dose: 60.0 mg/kg/injection, schedule: Q01DX005 (ip), vehicle: Klucel (hydroxypropylcellulose) (HPC)
[2] = dose: 50.0 mg/kg/injection, schedule: Q01DX009 (ip), vehicle: saline with Tween-80
[3] = dose: 100.0 mg/kg/injection, schedule: Q01DX009 (ip), vehicle: saline with Tween-80
[4] = dose: 200.0 mg/kg/injection, schedule: Q01DX009 (ip), vehicle: saline with Tween-80
[5] = dose: 50.0 mg/kg/injection, schedule: Q01DX005 (ip), vehicle: Klucel (hydroxypropylcellulose) (HPC)
[6] = dose: 100.0 mg/kg/injection, schedule: Q01DX005 (ip), vehicle: Klucel (hydroxypropylcellulose) (HPC)
[7] = dose: 200.0 mg/kg/injection, schedule: Q01DX005 (ip), vehicle: Klucel (hydroxypropylcellulose) (HPC)

`O=C1C(=O)c2nc3ccccc3nc2-c2ccccc21` was tested, and the T/C (dose: 25.0 mg/kg/injection, schedule: Q01DX005 (ip), vehicle: water) was 103 % of control, the T/C (dose: 50.0 mg/kg/injection, schedule: Q01DX005 (ip), vehicle: water) was 97 % of control and the T/C (dose: 100.0 mg/kg/injection, schedule: Q01DX005 (ip), vehicle: water) was 100 % of control. For the same molecule, the T/C (dose: 200.0 mg/kg/injection, schedule: Q01DX005 (ip), vehicle: water) was 96 % of control and the T/C (dose: 400.0 mg/kg/injection, schedule: Q01DX005 (ip), vehicle: water) was 104 % of control.

For `CC(=Nc1c(Cl)c(Cl)c2c(c1Cl)C(=O)c1cc(Cl)ccc1-2)NO`, the T/C (dose: 60.0 mg/kg/injection, schedule: Q01DX005 (ip), vehicle: saline with Tween-80) was 97 % of control, the T/C (dose: 120.0 mg/kg/injection, schedule: Q01DX005 (ip), vehicle: saline with Tween-80) was 104 % of control and the T/C (dose: 240.0 mg/kg/injection, schedule: Q01DX005 (ip), vehicle: saline with Tween-80) was 95 % of control.

In the case of `Nc1ccc2nc3ccc(N)cc3[n+](-c3ccccc3)c2c1`, the T/C (dose: 0.39 mg/kg/injection, schedule: Q04DX003 (ip), vehicle: saline) is reported as 100 % of control, the T/C (dose: 0.78 mg/kg/injection, schedule: Q04DX003 (ip), vehicle: saline) is reported as 95 % of control and the T/C (dose: 1.56 mg/kg/injection, schedule: Q04DX003 (ip), vehicle: saline) is reported as 95 % of control. For the same molecule, the T/C (dose: 3.13 mg/kg/injection, schedule: Q04DX003 (ip), vehicle: saline) was 95 % of control, the T/C (dose: 6.25 mg/kg/injection, schedule: Q04DX003 (ip), vehicle: saline) was 95 % of control and the T/C (dose: 8.0 mg/kg/injection, schedule: Q01DX009 (ip), vehicle: saline with Tween-80) was 154 % of control. The T/C (dose: 12.0 mg/kg/injection, schedule: Q01DX009 (ip), vehicle: saline with Tween-80) was 154 % of control, the T/C (dose: 12.5 mg/kg/injection, schedule: Q04DX003 (ip), vehicle: saline) was 95 % of control and the T/C (dose: 18.0 mg/kg/injection, schedule: Q01DX009 (ip), vehicle: saline with Tween-80) was 86 % of control.

`C=CCNC(=S)NC(c1ccc(OC)cc1)C(CC)c1ccc(OC)cc1` (stereo not given) was tested, and the T/C (dose: 100.0 mg/kg/injection, schedule: Q04DX002 (ip), vehicle: saline with Tween-80) was 100 % of control, the T/C (dose: 200.0 mg/kg/injection, schedule: Q04DX002 (ip), vehicle: saline with Tween-80) was 101 % of control and the T/C (dose: 400.0 mg/kg/injection, schedule: Q04DX002 (ip), vehicle: saline with Tween-80) was 106 % of control.

`O=C(Cc1ccccc1)Nc1ncc([N+](=O)[O-])s1` was tested, and the T/C (dose: 50.0 mg/kg/injection, schedule: Q01DX009 (ip), vehicle: Klucel (hydroxypropylcellulose) (HPC)) was 116 % of control, the T/C (dose: 100.0 mg/kg/injection, schedule: Q01DX009 (ip), vehicle: Klucel (hydroxypropylcellulose) (HPC)) was 106 % of control and the T/C (dose: 200.0 mg/kg/injection, schedule: Q01DX009 (ip), vehicle: Klucel (hydroxypropylcellulose) (HPC)) was 100 % of control.

In the case of `CCOC1(C)Oc2cc3c(cc2C(c2cc(OC)c(OC)c(OC)c2)C1C)OCO3` (stereo not given), the T/C [1] is reported as 96 % of control, the T/C (dose: 120.0 mg/kg/injection, schedule: Q01DX005 (ip), vehicle: Klucel (hydroxypropylcellulose) (HPC)) is reported as 100 % of control and the T/C (dose: 240.0 mg/kg/injection, schedule: Q01DX005 (ip), vehicle: Klucel (hydroxypropylcellulose) (HPC)) is reported as 98 % of control.

In the case of `CNC(=O)NC1NC(=O)N(C)C1=O` (stereo not given), the T/C [2] is reported as 100 % of control, the T/C [3] is reported as 99 % of control and the T/C [4] is reported as 100 % of control.

For `CC(=O)c1c(O)c(C)c(O)c2c1OC1=Cc3onc(C)c3C(=O)C12C` (stereo not given), the T/C (dose: 50.0 mg/kg/injection, schedule: Q01DX009 (ip), vehicle: gum acacia) was 99 % of control and 102 % of control, the T/C (dose: 100.0 mg/kg/injection, schedule: Q01DX009 (ip), vehicle: gum acacia) was 102 % of control and 104 % of control and the T/C (dose: 200.0 mg/kg/injection, schedule: Q01DX009 (ip), vehicle: gum acacia) was 92 % of control and 93 % of control.

For `COc1nc(C(Cl)(Cl)Cl)c(Cl)c(OC)c1Cl`, the T/C (dose: 17.8 mg/kg/injection, schedule: Q01DX005 (iv), vehicle: other) was 108 % of control, the T/C (dose: 25.0 mg/kg/injection, schedule: Q01DX005 (ip), vehicle: Klucel (hydroxypropylcellulose) (HPC)) was 114 % of control and 115 % of control and the T/C (dose: 26.7 mg/kg/injection, schedule: Q01DX005 (ip), vehicle: other) was 111 % of control and 121 % of control. For the same molecule, the T/C (dose: 26.7 mg/kg/injection, schedule: Q01DX005 (iv), vehicle: other) was 109 % of control, the T/C (dose: 40.0 mg/kg/injection, schedule: Q01DX005 (ip), vehicle: Klucel (hydroxypropylcellulose) (HPC)) was 100 % of control and 102 % of control and the T/C [1] was 105 % of control and 107 % of control. For the same molecule, the T/C (dose: 60.0 mg/kg/injection, schedule: Q01DX005 (iv), vehicle: other) was 107 % of control, the T/C (dose: 90.0 mg/kg/injection, schedule: Q01DX005 (ip), vehicle: other) was 171 % of control and the T/C (dose: 134.0 mg/kg/injection, schedule: Q01DX005 (ip), vehicle: Klucel (hydroxypropylcellulose) (HPC)) was 150 % of control. For the same molecule, the T/C (dose: 135.0 mg/kg/injection, schedule: Q01DX005 (ip), vehicle: Klucel (hydroxypropylcellulose) (HPC)) was 106 % of control, the T/C (dose: 135.0 mg/kg/injection, schedule: Q01DX005 (ip), vehicle: other) was 196 % of control and 207 % of control and the T/C (dose: 202.3 mg/kg/injection, schedule: Q01DX005 (ip), vehicle: Klucel (hydroxypropylcellulose) (HPC)) was 105 % of control. The T/C (dose: 303.3 mg/kg/injection, schedule: Q01DX005 (ip), vehicle: Klucel (hydroxypropylcellulose) (HPC)) was 168 % of control.

With `Cc1cc(C(O)(C(F)(F)F)C(F)(F)F)c2c(c1)C(C(F)(F)F)(C(F)(F)F)OC(C)(C)N2` the T/C [5] was 100 % of control, the T/C [6] was 100 % of control and the T/C [7] was 101 % of control.

With `O=C1OC(=O)c2c(Br)c(Br)c(Br)c(Br)c21` the T/C (dose: 100.0 mg/kg/injection, schedule: Q04DX003 (ip), vehicle: saline) was 100 % of control, the T/C (dose: 200.0 mg/kg/injection, schedule: Q04DX003 (ip), vehicle: saline) was 100 % of control and the T/C (dose: 400.0 mg/kg/injection, schedule: Q04DX003 (ip), vehicle: saline) was 104 % of control.

In the case of `O=C(OCC(Cl)(Cl)Cl)N1[C@@H]2C=C[C@@H](N1C(=O)OCC(Cl)(Cl)Cl)[C@@]13CCCC21O3` (stereo not given in full), the T/C [5] is reported as 103 % of control, the T/C [6] is reported as 105 % of control and the T/C [7] is reported as 103 % of control.

In the case of `COc1cc2c(cc1OC)C13CC[N+]4([O-])CC5=CCOC6CC(=O)N2C1C6C5CC34` (stereo not given), the T/C (dose: 15.0 mg/kg/injection, schedule: Q01DX005 (ip), vehicle: saline) is reported as 107 % of control, the T/C (dose: 30.0 mg/kg/injection, schedule: Q01DX005 (ip), vehicle: saline) is reported as 108 % of control and the T/C (dose: 60.0 mg/kg/injection, schedule: Q01DX005 (ip), vehicle: saline) is reported as 106 % of control and 107 % of control. For the same molecule, the T/C (dose: 120.0 mg/kg/injection, schedule: Q01DX005 (ip), vehicle: saline) was 100 % of control and the T/C (dose: 240.0 mg/kg/injection, schedule: Q01DX005 (ip), vehicle: saline) was 97 % of control.

With `Cc1ccc(S(=O)(=O)c2cnc(N)nc2N)cc1` the T/C (dose: 100.0 mg/kg/injection, schedule: Q01DX001 (ip), vehicle: saline) was 98 % of control, the T/C (dose: 200.0 mg/kg/injection, schedule: Q01DX001 (ip), vehicle: saline) was 95 % of control and the T/C (dose: 400.0 mg/kg/injection, schedule: Q01DX001 (ip), vehicle: saline) was 95 % of control.

For `O=C(CN1CCCCC1)Nc1ccc2c(c1)C(=O)c1ccc(NC(=O)CN3CCCCC3)cc1C2=O`, the T/C [5] was 90 % of control and 97 % of control, the T/C (dose: 50.0 mg/kg/injection, schedule: Q01DX005 (ip), vehicle: acid diluted with saline) was 100 % of control and the T/C [6] was 90 % of control and 94 % of control. For the same molecule, the T/C (dose: 100.0 mg/kg/injection, schedule: Q01DX005 (ip), vehicle: acid diluted with saline) was 106 % of control, the T/C [7] was 90 % of control and 95 % of control and the T/C (dose: 200.0 mg/kg/injection, schedule: Q01DX005 (ip), vehicle: acid diluted with saline) was 108 % of control.

With `CCNC(=S)NN` the T/C (dose: 3.13 mg/kg/injection, schedule: Q01DX009 (ip), vehicle: saline) was 106 % of control, the T/C (dose: 6.25 mg/kg/injection, schedule: Q01DX009 (ip), vehicle: saline) was 114 % of control and the T/C (dose: 12.5 mg/kg/injection, schedule: Q01DX009 (ip), vehicle: saline) was 105 % of control.

With `COc1ccc2c(C)cc(N/N=C/c3ccc([N+](=O)[O-])o3)nc2c1` the T/C [5] was 100 % of control, the T/C [6] was 101 % of control and the T/C [7] was 90 % of control.

`Nc1ccc2c(c1)C1(CCC2)NC(=O)NC1=O` (stereo not given) was tested, and the T/C [2] was 96 % of control, the T/C [3] was 95 % of control and the T/C [4] was 105 % of control.

For `CC(=O)C(=O)c1ccc(O)cc1O`, the T/C (dose: 10.0 mg/kg/injection, schedule: Q01DX009 (ip), vehicle: saline with Tween-80) was 96 % of control, the T/C (dose: 20.0 mg/kg/injection, schedule: Q01DX009 (ip), vehicle: saline with Tween-80) was 103 % of control and the T/C (dose: 40.0 mg/kg/injection, schedule: Q01DX009 (ip), vehicle: saline with Tween-80) was 107 % of control.
